{"source": "patent US20120083522A1", "about": "“MODULATION OF INFLAMMATORY RESPONSES BY FACTOR XI” (Isis Pharmaceuitcals, inc., priority 2009, published 2012)", "key": {"[1]": {"test": "Tolerability in CD1 mice: body and organ weight (Example 25)", "format": "in vivo", "conditions": "50 mg/kg s.c. twice per week for 6 weeks"}, "Factor XI protein": {"test_system": "Factor XI protein", "test": "Cynomolgus monkeys: plasma Factor XI protein ELISA (Example 29)", "format": "in vivo", "how_it_was_run": "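Monkeys received subcutaneous escalating doses (5, 10, then 25 mg/kg, two or three times weekly over 12 weeks) or a lower chronic regimen capped at 10 mg/kg. Plasma was sampled weekly and assayed at 1:50 by sandwich ELISA with o-phenylenediamine read at 490 nm. Values are % reduction versus PBS controls.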"}, "murine Factor XI mRNA": {"test_system": "murine Factor XI mRNA", "test": "Colitis Study B: Factor XI mRNA in the liver", "format": "in vivo, Swiss Webb mice", "conditions": "DSS-induced colitis, day 7, 20 mg/kg s.c. twice a week for 3 weeks, percent change compared to the PBS control", "description": "In a first group of 8 Swiss Webb mice, 20 mg/kg of ISIS 404071 was injected subcutaneously twice a week for 3 weeks. In a second group of 8 Swiss Webb mice, 20 mg/kg of ISIS 404057 was subcutaneously injected twice a week for 3 weeks. In a third control group of 8 Swiss Webb mice, 20 mg/kg of ISISI 421208 was injected subcutaneously twice a week for 3 weeks. Two control groups of 8 mice each were injected with PBS twice a week for 3 weeks. After the oligonucleotide treatment, 4% DSS in water was administered ad libitum for 6 days to all the experimental groups and one PBS control group.\nMice in all groups were weighed at day 0 and daily after administration of DSS. Mice were sacrificed at the end of the study on day 7 after DSS was administered, their livers and colons were harvested for RNA analysis, and their body weights and colon lengths were measured.\nRT-PCR analysis of Factor XI mRNA was performed. As presented in Table 27 and FIG. 10, antisense oligonucleotides targeting Factor XI achieved statistically significant dose-dependent reduction of murine Factor XI over the PBS control in the liver. All the measurements are normalized to cyclophilin.\nAll the results in Table 27 are expressed as percent change compared to the PBS control."}, "[2]": {"test_system": "thrombin-antithrombin (TAT) complexes", "test": "Colitis Study E: TAT levels", "format": "in vivo, Swiss Webb mice", "conditions": "for TAT levels: colon, DSS-treated mice, day 7, 40 mpk", "description": "(§1) Two groups 8 Swiss Webb mice were dosed with 40 mg/kg of ISIS 404071 injected subcutaneously twice a week for 3 weeks. Two control groups of 8 Swiss Webb mice were dosed with PBS subcutaneously twice a week for 3 weeks. Both the ASO treated groups and one of the control groups were then given 4% DSS in distilled water for 7 days ad libitum. One of the ASO and DSS treated groups was also given intravenous injections of 20 μg of recombinant human Factor XI protein (Haematologic Technologies Inc.) for 7 consecutive days, starting the day before DSS treatment. Mice were sacrificed at the end of the study on day 7 after DSS was administered.\nMice with dextran sodium sulfate (DSS)-induced colitis have elevated level of thrombin-antithrombin (TAT) complexes in blood (Anthoni, C. et al., J. Exp. Med. 204: 1595-1601, 2007) and is also observed in patients with ulcerative colitis (Kume, K. et al., Intern Med. 2007. 46: 1323-9). The effect of antisense inhibition of Factor XI on TAT levels in the […] was evaluated (Siemens Healthcare Diagnostics, Deerfield, Ill.) at the end of the study on day 7 after DSS was administered and the results are presented in Table 38."}, "[3]": {"test_system": "soluble CD40 ligand (CD40L)", "test": "Colitis Study E: CD40L plasma levels", "format": "in vivo, Swiss Webb mice", "conditions": "for CD40L plasma levels: DSS-treated mice, day 7, 40 mpk", "description": "as §1\nPlasma levels of soluble CD40 ligand (CD40L) are known to be elevated in cases of inflammatory bowel disease (Ludwiczek, O. et al., Int. J. Colorectal Disease. 2003. 18: 142-147) and may be considered a marker of intestinal inflammation. The effect of antisense inhibition of Factor XI on CD40L levels in the plasma was evaluated at the end of the study on day 7 after DSS was administered and the results are presented in Table 39. CD40L levels in plasma were measured by commercially available ELISA kits (Bender MedSystems, Vienna, Austria, eBioscience, San Diego, Calif.) according to the manufacture's protocols."}, "[4]": {"conditions": "plus human recombinant FXI 20 ug/mouse/day"}}, "note": "In the oligonucleotide strings, read from the 5' end, every base follows the letter of its sugar. An asterisk marks phosphorothioate; unmarked linkages are phosphodiester. Other units and linkages are bracketed, terminal groups are in braces. A string of capitals states the bases alone. e = 2'-O-(2-methoxyethyl) (MOE); [5mC] = 5-methylcytosine; d = 2'-deoxy (DNA)", "data": [{"substance": "ISIS 416850: gapmer of Table 8 (antisense eT*eG*e[5mC]*eA*e[5mC]*dA*dG*dT*dT*dT*d[5mC]*dT*dG*dG*d[5mC]*eA*eG*eG*e[5mC]*e[5mC])", "values": [{"measurement": "Body weight (increase over PBS control weight before start of treatment)", "setting": "[1]", "value": 11, "unit": "g"}, {"measurement": "Kidney weight as percentage of body weight", "setting": "[1]; end of study", "value": 1.5, "unit": "%"}, {"measurement": "Liver weight as percentage of body weight", "setting": "[1]; end of study", "value": 6, "unit": "%"}, {"measurement": "Spleen weight as percentage of body weight", "setting": "[1]; end of study", "value": 0.4, "unit": "%"}, {"measurement": "Factor XI protein levels (in words)", "setting": "Factor XI protein; Example 29", "value": "time-dependent decrease in protein levels"}, {"measurement": "Inhibition of Factor XI protein relative to the PBS control", "setting": "Factor XI protein; chronic, lower dose regimen (*) 5 then 10 mg/kg s.c., day 8", "value": 6, "unit": "%"}, {"measurement": "Inhibition of Factor XI protein relative to the PBS control", "setting": "Factor XI protein; chronic, lower dose regimen (*) 5 then 10 mg/kg s.c., day 15", "value": 13, "unit": "%"}, {"measurement": "Inhibition of Factor XI protein relative to the PBS control", "setting": "Factor XI protein; chronic, lower dose regimen (*) 5 then 10 mg/kg s.c., day 22", "value": 12, "unit": "%"}, {"measurement": "Inhibition of Factor XI protein relative to the PBS control", "setting": "Factor XI protein; chronic, lower dose regimen (*) 5 then 10 mg/kg s.c., day 29", "value": 20, "unit": "%"}, {"measurement": "Inhibition of Factor XI protein relative to the PBS control", "setting": "Factor XI protein; chronic, lower dose regimen (*) 5 then 10 mg/kg s.c., day 36", "value": 22, "unit": "%"}, {"measurement": "Inhibition of Factor XI protein relative to the PBS control", "setting": "Factor XI protein; chronic, lower dose regimen (*) 5 then 10 mg/kg s.c., day 43", "value": 24, "unit": "%"}, {"measurement": "Inhibition of Factor XI protein relative to the PBS control", "setting": "Factor XI protein; chronic, lower dose regimen (*) 5 then 10 mg/kg s.c., day 50", "value": 30, "unit": "%"}, {"measurement": "Inhibition of Factor XI protein relative to the PBS control", "setting": "Factor XI protein; chronic, lower dose regimen (*) 5 then 10 mg/kg s.c., day 57", "value": 34, "unit": "%"}, {"measurement": "Inhibition of Factor XI protein relative to the PBS control", "setting": "Factor XI protein; chronic, lower dose regimen (*) 5 then 10 mg/kg s.c., day 64", "value": 37, "unit": "%"}, {"measurement": "Inhibition of Factor XI protein relative to the PBS control", "setting": "Factor XI protein; chronic, lower dose regimen (*) 5 then 10 mg/kg s.c., day 71", "value": 41, "unit": "%"}, {"measurement": "Inhibition of Factor XI protein relative to the PBS control", "setting": "Factor XI protein; chronic, lower dose regimen (*) 5 then 10 mg/kg s.c., day 78", "value": 42, "unit": "%"}, {"measurement": "Inhibition of Factor XI protein relative to the PBS control", "setting": "Factor XI protein; chronic, lower dose regimen (*) 5 then 10 mg/kg s.c., day 85", "value": 34, "unit": "%"}, {"measurement": "Inhibition of Factor XI protein relative to the PBS control", "setting": "Factor XI protein; chronic, lower dose regimen (*) 5 then 10 mg/kg s.c., day −5 (before treatment)", "value": 1, "unit": "%"}, {"measurement": "Inhibition of Factor XI protein relative to the PBS control", "setting": "Factor XI protein; chronic, lower dose regimen (*) 5 then 10 mg/kg s.c., day −14 (before treatment)", "value": 0, "unit": "%"}, {"measurement": "Inhibition of Factor XI protein relative to the PBS control", "setting": "Factor XI protein; escalating doses 5, 10, 25 mg/kg s.c., day 8", "value": 8, "unit": "%"}, {"measurement": "Inhibition of Factor XI protein relative to the PBS control", "setting": "Factor XI protein; escalating doses 5, 10, 25 mg/kg s.c., day 15", "value": 4, "unit": "%"}, {"measurement": "Inhibition of Factor XI protein relative to the PBS control", "setting": "Factor XI protein; escalating doses 5, 10, 25 mg/kg s.c., day 22", "value": 11, "unit": "%"}, {"measurement": "Inhibition of Factor XI protein relative to the PBS control", "setting": "Factor XI protein; escalating doses 5, 10, 25 mg/kg s.c., day 29", "value": 15, "unit": "%"}, {"measurement": "Inhibition of Factor XI protein relative to the PBS control", "setting": "Factor XI protein; escalating doses 5, 10, 25 mg/kg s.c., day 36", "value": 17, "unit": "%"}, {"measurement": "Inhibition of Factor XI protein relative to the PBS control", "setting": "Factor XI protein; escalating doses 5, 10, 25 mg/kg s.c., day 43", "value": 23, "unit": "%"}, {"measurement": "Inhibition of Factor XI protein relative to the PBS control", "setting": "Factor XI protein; escalating doses 5, 10, 25 mg/kg s.c., day 50", "value": 42, "unit": "%"}, {"measurement": "Inhibition of Factor XI protein relative to the PBS control", "setting": "Factor XI protein; escalating doses 5, 10, 25 mg/kg s.c., day 57", "value": 49, "unit": "%"}, {"measurement": "Inhibition of Factor XI protein relative to the PBS control", "setting": "Factor XI protein; escalating doses 5, 10, 25 mg/kg s.c., day 64", "value": 55, "unit": "%"}, {"measurement": "Inhibition of Factor XI protein relative to the PBS control", "setting": "Factor XI protein; escalating doses 5, 10, 25 mg/kg s.c., day 71", "value": 57, "unit": "%"}, {"measurement": "Inhibition of Factor XI protein relative to the PBS control", "setting": "Factor XI protein; escalating doses 5, 10, 25 mg/kg s.c., day 78", "value": 63, "unit": "%"}, {"measurement": "Inhibition of Factor XI protein relative to the PBS control", "setting": "Factor XI protein; escalating doses 5, 10, 25 mg/kg s.c., day 85", "value": 64, "unit": "%"}, {"measurement": "Inhibition of Factor XI protein relative to the PBS control", "setting": "Factor XI protein; escalating doses 5, 10, 25 mg/kg s.c., day −5 (before treatment)", "value": 0, "unit": "%"}, {"measurement": "Inhibition of Factor XI protein relative to the PBS control", "setting": "Factor XI protein; escalating doses 5, 10, 25 mg/kg s.c., day −14 (before treatment)", "value": 0, "unit": "%"}]}, {"substance": "TGGTAATCCACTTTCAGAGG (eT*eG*eG*eT*eA*dA*dT*d[5mC]*d[5mC]*dA*d[5mC]*dT*dT*dT*d[5mC]*eA*eG*eA*eG*eG) [ISIS 404071, 5-10-5 MOE gapmer targeting murine Factor XI, target start site 869]", "values": [{"measurement": "Liver Factor XI mRNA", "setting": "murine Factor XI mRNA", "value": "−75", "unit": "%"}, {"measurement": "TAT levels (in words)", "setting": "[2]; Colitis Study E, day 7", "value": "decreased"}, {"measurement": "TAT levels", "setting": "[2]; no human recombinant FXI", "value": 0.1, "unit": "ng/mg protein"}, {"measurement": "TAT levels", "setting": "[2]; [4]", "value": 0.8, "unit": "ng/mg protein"}, {"measurement": "CD40L levels in plasma (in words)", "setting": "[3]; Colitis Study E, day 7", "value": "decreased"}, {"measurement": "CD40L plasma levels", "setting": "[3]; no human recombinant FXI", "value": 1.5, "unit": "ng/mL"}, {"measurement": "CD40L plasma levels", "setting": "[3]; [4]", "value": 1.6, "unit": "ng/mL"}]}]}
